Measured values reported in article PMC9089912, “Imaging articular cartilage in osteoarthritis using targeted peptide radiocontrast agents” (PLoS ONE, 2022).
“Also recorded” adds a separate entry of the source. Non-standard residues stand in square brackets, D forms with d. Residues, ends and D or L forms follow the SMILES beside them. Tyr(3,5-I2) = N[C@@H](Cc1cc(I)c(O)c(I)c1)C(=O)O; AEEA = NCCOCCOCC(=O)O

Experiments:
[1] = target: T1, murine articular cartilage (type II collagen) (Mus musculus, UniProt P28481); test: Fluorescence histology of murine cartilage after intra-articular injection of DOTAM-Cy5.5 probes; type: in vivo; conditions: 24 h after intra-articular injection into mouse knee joints; probes of ref 20
T1 construct: Fixed cryosections of murine tibiae (10 µm) 24 h after intra-articular injection of Ac-WYRGRL-DOTAM-Cy5.5 or Ac-YRLGRW-DOTAM-Cy5.5; from tissue; host or cells: articular cartilage of the mouse knee joint (in vivo injection, histology of tibial cryosections)
Description: Fluorescence immunohistochemistry for localisation of Ac-WYRGRL-DOTAM-Cy5.5. Fixed cryosections of murine tibiae (10 µm) 24 h after intra-articular injection of Ac-WYRGRL-DOTAM-Cy5.5 or Ac-YRLGRW-DOTAM-Cy5.5 [1] were blocked with 10% goat serum, stained with rat anti-heparan sulfate proteoglycan antibody (A7L6, Abcam), washed three times with PBS-Tween 0.05% (v/v), labelled with Alexa Fluor 488 goat anti-rat IgG (H+L, Abcam) and washed three times with PBS-Tween 0.05% (v/v) before imaging. Cryosections were viewed under a Nikon TE2000-U Ultraview confocal microscope (PerkinElmer, Seer Green, UK) using a 488 nm excitation laser with 525 nm emission filter to visualise the Alexa Fluor 488 label (green false colour), and a 640 nm excitation laser with 700 nm emission filter to visualise the Cy5.5 label (red false colour).

[2] = Solubility of purified DIT peptides at concentrations needed for radiocontrast; conditions: purified peptide (≥ 95% by HPLC), 10% DMSO/water, at 20 mg iodine/ml as well as 2 mg iodine/ml (lowest concentration for contrast)
Description: An integrated design, placing DIT into the core of WYRGRL (3) was followed by the addition of a further DIT at the N-terminus (4). […] To improve solubility, both arginine residues in 3 and 4 were replaced with lysine to give 5 and 6, respectively.

[3] = Ex vivo micro-CT contrast enhancement of murine articular cartilage: DIPIC vs PTA vs iopamidol; design: species or system mouse; conditions: 20 mg iodine/ml (PTA: 1% in 70% ethanol); for Thickness of cartilage assessed with the contrast agent: ex vivo mouse tibiae; for Thickness of cartilage assessed with the contrast agent / Difference in X-ray absorption between cartilage and background: micro-CT absorption profile; for X-ray absorption of background / X-ray absorption of cartilage / Difference in X-ray absorption between cartilage and background: overnight incubation of mouse tibiae (n = 3); for X-ray absorption of background / X-ray absorption of cartilage: mean ± SEM
Description: Ex vivo imaging with DIPIC, PTA or iopamidol. Mice were culled through inhalation of CO2 and their knee joints harvested and split under a dissection microscope. Tibiae (n = 3) were finely dissected to remove soft tissue and incubated overnight either in DIT peptide or iopamidol (Santa Cruz Biotechnology, Dallas, Texas, USA) at 20 mg iodine/ml (20 μl) or 1% PTA (Sigma) in 70% ethanol. To determine the contrast achieved in the articular cartilage at equilibrium, proximal tibiae were imaged by micro-CT while incubated in each contrast agent. […] Following imaging, tibiae were washed in saline and imaged in fresh saline until the articular cartilage could no longer be detected.
Generation of colour-coded absorption maps. To calibrate micro-CT scans in Hounsfield units (HU), air and water were scanned and reconstructed. The average grey level intensity within a cylindrical VOI was obtained from image histograms in ImageJ (air = -832.85, water = 152.54). Based on knowledge of the average grey level intensity and the corresponding HU (air = -1000, water = 0), the following linear transformation was derived (equation 2): […]
Using this calibration, the grey level intensity of each pixel was linearly transformed into X-ray absorption (HU) for each micro-CT image dataset using Matlab (R2014b, MathWorks, Natick, Massachusetts, USA). To enhance the difference between X-ray absorption of each tissue, colour-coded maps, also expressed in HU, were generated in Matlab by assigning a look up table (LUT) of 256 colours to each image dataset.

T1 sequence (P28481 182-1241 limits assumed): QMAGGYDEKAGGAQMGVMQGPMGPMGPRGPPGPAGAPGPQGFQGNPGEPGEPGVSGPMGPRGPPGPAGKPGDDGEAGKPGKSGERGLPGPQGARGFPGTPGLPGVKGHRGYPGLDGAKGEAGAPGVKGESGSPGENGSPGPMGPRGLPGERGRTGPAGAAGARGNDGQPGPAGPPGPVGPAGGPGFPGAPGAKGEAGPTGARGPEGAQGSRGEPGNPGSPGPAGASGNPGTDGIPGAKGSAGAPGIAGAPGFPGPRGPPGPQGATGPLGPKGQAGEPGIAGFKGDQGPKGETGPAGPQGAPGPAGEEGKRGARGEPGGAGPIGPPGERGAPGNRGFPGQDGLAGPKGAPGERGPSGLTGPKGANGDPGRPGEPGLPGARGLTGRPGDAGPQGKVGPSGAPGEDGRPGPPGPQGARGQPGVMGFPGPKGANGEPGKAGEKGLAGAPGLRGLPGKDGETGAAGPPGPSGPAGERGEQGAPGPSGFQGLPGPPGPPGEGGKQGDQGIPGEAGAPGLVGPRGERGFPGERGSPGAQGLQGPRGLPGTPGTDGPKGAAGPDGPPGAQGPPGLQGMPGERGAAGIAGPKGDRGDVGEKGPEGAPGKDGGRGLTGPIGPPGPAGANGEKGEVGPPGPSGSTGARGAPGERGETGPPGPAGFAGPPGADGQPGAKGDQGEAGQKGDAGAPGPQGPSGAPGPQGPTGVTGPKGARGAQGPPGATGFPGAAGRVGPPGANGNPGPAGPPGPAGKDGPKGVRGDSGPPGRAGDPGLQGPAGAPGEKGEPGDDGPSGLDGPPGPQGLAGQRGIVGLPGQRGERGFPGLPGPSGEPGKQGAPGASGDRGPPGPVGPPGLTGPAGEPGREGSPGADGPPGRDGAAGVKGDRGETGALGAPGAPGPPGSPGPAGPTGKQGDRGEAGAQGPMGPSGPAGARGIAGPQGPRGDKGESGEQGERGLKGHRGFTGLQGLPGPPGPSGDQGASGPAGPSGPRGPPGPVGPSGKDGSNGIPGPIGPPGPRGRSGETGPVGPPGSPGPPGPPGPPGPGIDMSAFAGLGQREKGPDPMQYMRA

Ac-YRLGRW-DOTAM-Cy5.5 [scrambled control peptide-DOTAM-Cy5.5 probe]
Binding of probe to cartilage (Cy5.5 fluorescence histology) [1]: Only targeted probe (F) showed binding to cartilage

CC(C)C[C@H](NC(=O)[C@H](CCCCN)NC(=O)CNC(=O)[C@H](CCCCN)NC(=O)[C@H](Cc1cc(I)c(O)c(I)c1)NC(=O)[C@@H](N)Cc1c[nH]c2ccccc12)C(=O)NCCOCCOCC(=O)N[C@@H](Cc1cc(I)c(O)c(I)c1)C(=O)NCC(=O)O [compound 14] (H-W[Tyr(3,5-I2)]KGKL[AEEA][Tyr(3,5-I2)]G-OH)
Solubility of pure peptide [2]: insoluble

O=P(O)(O)O.[O]=[W](=[O])=[O].[O]=[W](=[O])=[O].[O]=[W](=[O])=[O].[O]=[W](=[O])=[O].[O]=[W](=[O])=[O].[O]=[W](=[O])=[O].[O]=[W](=[O])=[O].[O]=[W](=[O])=[O].[O]=[W](=[O])=[O].[O]=[W](=[O])=[O].[O]=[W](=[O])=[O].[O]=[W](=[O])=[O] [PTA, phosphotungstic acid]
Thickness of cartilage assessed with the contrast agent [3]: 110 μm
X-ray absorption of background [3]: 342 ± 64 HU
X-ray absorption of cartilage [3]: 3657 ± 253 HU
Difference in X-ray absorption between cartilage and background [3]: 10.7 fold

CC(C)C[C@H](NC(=O)[C@H](CCCNC(=N)N)NC(=O)CNC(=O)[C@H](CCCNC(=N)N)NC(=O)[C@H](Cc1cc(I)c(O)c(I)c1)NC(=O)[C@H](Cc1c[nH]c2ccccc12)NC(=O)[C@@H](N)Cc1cc(I)c(O)c(I)c1)C(=O)O [compound 4] (H-[Tyr(3,5-I2)]W[Tyr(3,5-I2)]RGRL-OH)
Solubility of pure peptide [2]: poor solubility

Ac-WYRGRL-DOTAM-Cy5.5 [targeting peptide conjugated to a macrocyclic DOTAM scaffold with a Cy5.5 fluorophore]
Binding of probe to cartilage (Cy5.5 fluorescence histology) [1]: strong binding of the targeted probe to cartilage; also recorded: showed binding to cartilage

C[C@H](O)C(=O)Nc1c(I)c(C(=O)NC(CO)CO)c(I)c(C(=O)NC(CO)CO)c1I [iopamidol]
Thickness of cartilage assessed with the contrast agent [3]: 70 μm
X-ray absorption of background [3]: 875 ± 12 HU
X-ray absorption of cartilage [3]: 678 ± 29 HU
Difference in X-ray absorption between cartilage and background [3]: 0.8 fold

CC(C)C[C@H](NC(=O)[C@H](CCCCN)NC(=O)CNC(=O)[C@H](CCCCN)NC(=O)[C@H](Cc1ccc(O)cc1)NC(=O)[C@H](Cc1c[nH]c2ccccc12)NC(=O)COCCOCCNC(=O)[C@H](Cc1cc(I)c(O)c(I)c1)NC(=O)[C@@H](N)Cc1cc(I)c(O)c(I)c1)C(=O)O [compound 12] (H-[Tyr(3,5-I2)][Tyr(3,5-I2)][AEEA]WYKGKL-OH)
Solubility of pure peptide [2]: insoluble

CC(C)C[C@H](NC(=O)[C@H](CCCNC(=N)N)NC(=O)CNC(=O)[C@H](CCCNC(=N)N)NC(=O)[C@H](Cc1cc(I)c(O)c(I)c1)NC(=O)[C@@H](N)Cc1c[nH]c2ccccc12)C(=O)O [compound 3] (H-W[Tyr(3,5-I2)]RGRL-OH)
Solubility of pure peptide [2]: poor solubility

CC(C)C[C@H](NC(=O)[C@H](CCCCN)NC(=O)CNC(=O)[C@H](CCCCN)NC(=O)[C@H](Cc1cc(I)c(O)c(I)c1)NC(=O)[C@H](Cc1c[nH]c2ccccc12)NC(=O)[C@@H](N)Cc1cc(I)c(O)c(I)c1)C(=O)O [peptide 6] (H-[Tyr(3,5-I2)]W[Tyr(3,5-I2)]KGKL-OH)
Solubility of pure peptide [2]: insoluble in solution
